Data published in patent US20140178305A1, “IDENTIFICATION AND USE OF ANXIOLYTIC COMPOUNDS” (CALIFORNIA INSTITUTE OF TECHNOLOGY, priority 2012, published 2014).
Entries after “also recorded” stand apart in the source; their conditions may differ.

Experiments:
Format in all cases: in vivo, mouse
[1] = system: MRGPRB4+ neurons (hM3DREADD); test: Conditioned place preference (CPP) assay, biased design, pharmacogenetic activation with CNO
Method: (§1) For behavioral experiments, juvenile (1-month-old) mice neonatally injected with Cre-dependent AAV8 viruses expressing hM3DREADD were subjected to a conditioned place preference assay (CPP13) using a biased design, by an investigator blind to genotype. All mice were tested for their initial chamber preference before conditioning, as depicted in FIG. 4C, lower panel).
(§2) The conditioned place preference (CPP) protocol was based on previous studies. For testing a positive valence effect of activation of MrgprB4^+ neurons, a biased compartment assignment procedure in which activation of the neurons is tested for its ability was used to increase the time spent in the initially non-preferred chamber. The CPP apparatus consisted of a rectangular chamber divided into three compartments (300×150×150 mm per compartment), connected via an opening (50×50 mm) in each delimiting wall. The two side (test) compartments were designed to have different visual and tactile cues, by having distinct walls (horizontal or vertical alternating white and black stripes) and distinct floors (different shapes of floor grids with big or small square holes). In addition a 1-inch-diameter polyvinylchloride (PVC) pipe coupler (two schedule 40 wall thickness), either threaded or smooth, was placed in the centre of each side compartment to enrich for tactile cues. The centre compartment was a neutral plastic enclosure (see FIG. 4B). This design was chosen so as to promote a compartment preference assignment for each mouse. A video tracking system (Noldus Ethovision) recorded all animal movements.
(§3) Because our hypothesis is based on the social reward mediated by social contact in juvenile mice, the mice used were approximately 1-month old. After weaning the mice were maintained in social groups and left undisturbed until the start of the CPP assay. The paradigm was completed in 6 days. On the day before pre-testing the mice were socially isolated in their home cage. On day 1 of the procedure each mouse was placed in the central compartment and allowed to explore the entire apparatus freely for 30 min (pre-test). After the pre-test the initial preference of each mouse for a given side compartment was recorded. […] Conditioning was initiated on day 2 and encompassed four sessions performed on four consecutive days. In the first conditioning session mice were injected i.p. with CNO (5 mg kg) (or saline of an equivalent volume for some control mice) and placed for 1 h (based on the observation that CNO effects peak between 45 and 50 min after administration) in the initially non-preferred (I.N.P.) compartment. On day 3, during the second conditioning session, all mice were injected with saline and confined for 1 hr in the opposite (that is, initially preferred, I.P.) compartment. (The second conditioning session was performed the following day as CNO effects last for 9 hrs.) On day 4 and day 5 the first and second conditioning sessions were repeated, respectively. The time between the i.p. injections of CNO or saline and the placement of the mice in the compartment was between 5-10 min, which is compatible with the time that is needed for CNO to start having an effect. On day 6, the mice were tested for their side compartment preference by placing them in the centre compartment and allowing them to explore the entire apparatus freely for 30 min (post test). All sessions were conducted blind to the genotype/injected virus of each mouse. For the conditioned place aversion (CPA assay) the mice remained group-housed until the day before the pre-test. After the pre-test, on the first day of the conditioning session the mice were injected with saline and confined in the I.N.P. compartment. On the second day of conditioning the mice were injected with CNO (except for the saline control mice) and placed in the I.P. compartment. On the third and fourth day of conditioning the first and second sessions of conditioning were repeated, respectively. […]

[2] = system: MRGPRD+ neurons (hM3DREADD); test: as above; details: MrgprD-Cre/hM3DREADD mice conditioned with CNO, n=8
Method: as §1, §2, §3

[3] = system: MRGPRB4+ spinal afferent fibres co-expressing GCaMP3.0 and hM3DREADD; test: Calcium imaging after spinal application of CNO in MrgprB4+ fibres expressing hM3DREADD and GCaMP3.0; details: CNO 1.5 mM, mice co-injected with GCaMP3.0 and hM3DREADD viruses
Method: KCl, final concentration (60 mM), α,β-methyl ATP (5 mM) and CNO (1.5 mM) were delivered manually to the imaging bath using a pipetman pipette.
The stimuli used to activate MRGPRB41 fibres were designed to mimic stroking and allogrooming stimuli. […] To determine whether direct activation of MRGPRB41 neurons could similarly promote a preference for the location in which this stimulation occurred, a pharmacogenetic strategy was used. Juvenile (1-month-old) Mrgprb4-cre male mice were injected neonatally with an AAV encoding the hM3-(Gq-coupled)DREADD19, the activation of which by clozapine-N-oxide (CNO) causes membrane depolarization (FIG. 4a).
Spinal application of CNO was employed to image activation of hM3DREADD and GCaMP3.0-expressing MrgprB4^+ fibers. The low probability of double-infection of individual MrgprB4^+ neurons with both the GCaMP3.0 and hM3DREADD Cre-dependent viruses (˜30%), taken together with the difficulty of identifying sites for focal peripheral injection corresponding to specific MrgprB4^+ central afferent fibers visualized in the spinal cord, precluded peripheral delivery of CNO for this assay.

Compound: C[N+]1([O-])CCN(C2=Nc3cc(Cl)ccc3Nc3ccccc32)CC1 [CNO, Clozapine-N-oxide]
- difference of means of difference scores, experimental versus pooled controls ([1]; 95% confidence interval 62.9-339.3, Cohen's d=0.872): 201±70
- difference score (time after conditioning minus before conditioning), saline-paired chamber ([1]; MrgprB4::hM3DREADD mice, n=15): -340 ± 74 s
- difference score (time after conditioning minus before conditioning), CNO-paired (I.N.P.) chamber ([1]; MrgprB4::hM3DREADD mice, n=15, p<0.01): 253 ± 66 s
- increase in the time spent in the I.N.P. chamber paired with CNO exposure ([1]; Mrgprb4-hM3DREADD mice, CNO 5 mg/kg i.p., pre- versus post-training, n=15, P<0.01): 190±95%
- change in the difference score for the I.N.P. chamber ([1]; control mice expressing hrGFP in MrgprB4+ (n=9) or MrgprD+ (n=10) neurons, conditioned with CNO): No significant change
- mean difference score of the experimental animals in the I.N.P. chamber ([1]; experimental group (FIG. 4e, j)): 253±65.8
- increase in preference score for the I.N.P. chamber (time in CNO/I.N.P. chamber divided by total time in the two test chambers) ([1]; experimental group, pre vs. post, p<0.001): 195±86%
- conditioned place preference (CPP) [2]: neither CPP
- calcium transients after application to the spinal cord [3]: able to induce calcium transients; also recorded: robust calcium transients
